The subject of test [1] is liver sections from HFD-fed rats. As to the kind of experiment: Oil-Red-O staining of frozen liver sections. Type of test: in vivo, rat. As for the experimental part:
At termination of the study of Example 2 the rat livers were embedded using snap freezing in OCT, and then sectioned using a cryomicrotome. Sections were prepared from four groups, KBP-042 in HFD rats, KBP-089 in HFD rats, control HFD rats, and a lean rat comparison.
The sections were stained using Oil-Red-O staining. […] The lipid accumulation in pair-fed KBP-089 liver exceeded KBP-089 treated rats with 66.5% (p<0.001) and was not significant different from vehicle (0.6711). Statistical test performed was one-way ANOVA with Dunnet's post test for multiple comparisons. **p<0.01, ***p<0.001.

For test [2], the system named is cultured rat hepatocytes. The conditions noted are these: cited from earlier work.
Test [3] deals with rats. As to conditions: s.c., single dose 1000 mU/rat or 0.5-50 mU/rat over 12 weeks, dose dependently; cited from earlier work.
The conditions of test [4]: amylin dosage 100 μg kg^−1, compared with saline; cited from earlier work.

Where no end group is shown, it is not given here.

With “AcCSNLSTCMLGRLSQDLHRLQTYPKTDVGANAP-NH2 (Ac-CSNLSTCMLGRLSQDLHRLQTYPKTDVGANAP-NH2; ends and bridges not checked) [KBP-089]”, in test [1] (2.5 μg/kg, p<0.001), the “excess of lipid accumulation in pair-fed KBP-089 liver over KBP-089 treated rats (Oil-Red-O)” value stood at 66.5%. Besides, the “decrease of HFD-induced lipid accumulation in liver compared to vehicle (Oil-Red-O)” value in test [1] (HFD rats, 2.5 μg/kg daily) turned out to be 155.3%.

Consider “salmon calcitonin [synthetic salmon calcitonin]”, for which, in test [2], the “incorporation of acetate into cholesterol and triglycerides” value is “reduced”. Further, in test [3], the serum cholesterol levels result is listed as “reduced”, the serum lipoprotein levels result is on record as “reduced” and the serum triglyceride levels entry is “reduced”.

Take “amylin (KCNTATCATQRLANFLVRSSNNLGPVLPPTNVGSNTY; ends and bridges not checked; cysteine pairing not given here; UniProt P12969 38-74, looked up) [amylin administered alone in Kusakabe et al (2011), reference compound]”: the tissue triglyceride content entry in test [4] is on record as “neither L nor A decreased”.

B1: leptin (protein, UniProt P50596 22-167, looked up)
Leptin: VPIHKVQDDTKTLIKTIVTRINDISHTQSVSARQRVTGLDFIPGLHPILSLSKMDQTLAVYQQILTSLPSQNVLQIAHDLENLRDLLHLLAFSKSCSLPQTRGLQKPESLDGVLEASLYSTEVVALSRLQGSLQDILQQLDLSPEC
notes: leptin administered alone in Kusakabe et al (2011)
In the case of B1, the tissue triglyceride content result in test [4] is listed as “neither L nor A decreased”.

Values taken from US10350272B2, “Calcitonin analogues for treating diseases and disorders” (KeyBioscience AG, priority 2015, dated 2019).
